# Earlier results as cited in patent US20240248099A1, “BIOMARKERS FOR AGE-RELATED MACULAR DEGENERATION” (BELITE BIO, LLC, priority 2021, published 2024).
# Biological target: T1, RBP4 (Homo sapiens, UniProt P02753)
# T1 construct: host or cells: serum of AMD patients (endogenous circulating protein)
smiles,measurement,setting,value
CC1=C(/C=C/C(C)=C/C=C/C(C)=C/C(=O)Nc2ccc(O)cc2)C(C)(C)CCC1 [fenretinide],incidence of choroidal neovascularization onset,"246 AMD patients with only geographic atrophy, 100 mg or 300 mg fenretinide or placebo, 2 years, especially in the higher dose group",reduction in the incidence of choroidal neovascularization onset
same,"growth rate of geographic atrophy, overall cohort","overall cohort, insufficient number of subjects achieving serum RBP4 less than 1 μM",no statistically significant retardation of the growth rate of geographic atrophy
same,rate of geographic atrophy progression versus serum RBP4 level,patients who achieved RBP4 levels below 1 μM (approximately 20 μg/ml) after fenretinide treatment,a lower serum RBP4 level was correlated with a slower rate of geographic atrophy progression
